≈ marks a conversion by molar mass, not a printed value.
Experiments:
Experiment in all cases: ≥ marks a high value that may be exact or a test limit, other limits are often not marked, values filed in µg/mL are converted to µM
[1] = tested on: Micrococcus luteus ATCC 4698
[2] = tested on: Staphylococcus aureus
[3] = tested on: Streptococcus mutans UA159
[4] = tested on: Streptococcus sanguinis NY101
[5] = tested on: Streptococcus mitis ATCC 903
[6] = tested on: Pseudomonas aeruginosa PAK
[7] = tested on: Streptococcus gordonii Challis DL1
[8] = tested on: Staphylococcus epidermidis ATCC 12228
[9] = tested on: Staphylococcus aureus ATCC 6538
[10] = tested on: Escherichia coli DH5alpha
[11] = tested on: Escherichia coli HP101BA 7601c
[12] = tested on: Klebsiella pneumoniae PTCC 1388
[13] = tested on: Micrococcus luteus PTCC 1625
[14] = tested on: Staphylococcus aureus PTCC 1431
[15] = tested on: Staphylococcus aureus USA 300
[16] = tested on: Staphylococcus aureus MU50
[17] = tested on: Candida tropicalis ATCC 13803
[18] = tested on: Candida albicans ATCC 90028
[19] = tested on: Candida albicans ATCC 10231
[20] = tested on: Staphylococcus aureus ATCC 25923
[21] = tested on: Staphylococcus aureus USA 200
[22] = tested on: Bacillus subtilis 168
[23] = tested on: Pseudomonas aeruginosa PAO1
[24] = tested on: Escherichia coli ATCC 25922
[25] = tested on: Candida glabrata ATCC 2001
[26] = tested on: Staphylococcus aureus UAMS-1
[27] = tested on: Klebsiella pneumoniae ATCC 13883
[28] = tested on: Staphylococcus epidermidis 1457
[29] = tested on: Staphylococcus aureus Newman
[30] = tested on: Staphylococcus aureus USA 400
[31] = tested on: Escherichia coli ATCC 25726
[32] = tested on: Bacillus subtilis ATCC 62037
[33] = tested on: Streptococcus mutans ATCC 25175
[34] = tested on: Staphylococcus aureus ATCC 15752
[35] = tested on: Serratia sp. ATCC 21074
[36] = tested on: Pseudomonas putida ATCC 17426
[37] = tested on: Escherichia coli ATCC 27325
[38] = tested on: Cryptococcus neoformans ATCC 34881
[39] = tested on: Saccharomyces cerevisiae ATCC 44774

Question: For `CC[C@H](C)[C@@H]1NC(=O)[C@H](CO)NC(=O)[C@H](CCCCN)NC(=O)[C@@H](N)CSSC[C@@H](C(=O)NCC(=O)O)NC(=O)[C@H](CCCN=C(N)N)NC(=O)CNC(=O)[C@@H]2CCCN2C1=O` [CKSIPGRCG], which MIC [1] is on record?
Answer: The MIC was ≥ 75 µM.

Question: With `CC[C@H](C)[C@H](NC(=O)[C@H](Cc1ccccc1)NC(=O)[C@H](Cc1cnc[nH]1)NC(=O)[C@H](CCCCN)NC(=O)[C@@H](NC(=O)[C@@H](N)Cc1ccccc1)[C@@H](C)CC)C(=O)N[C@@H](Cc1cnc[nH]1)C(=O)N[C@@H](CCCN=C(N)N)C(=O)N[C@@H](Cc1ccccc1)C(=O)N[C@@H](CO)C(=O)N[C@@H](C)C(=O)N[C@H](C(=O)N[C@@H](CC(C)C)C(=O)N[C@@H](CCC(N)=O)C(=O)N[C@@H](CC(C)C)C(=O)N[C@@H](CC(C)C)C(=O)N[C@@H](CCCCN)C(=O)N[C@@H](CCC(N)=O)C(=O)N[C@@H](CC(C)C)C(=O)N[C@@H](CC(C)C)C(=O)N[C@@H](CCCCN)C(=O)N[C@@H](CC(C)C)C(=O)N[C@@H](CC(C)C)C(=O)N[C@@H](CCCCN)C(=O)N[C@@H](CCC(N)=O)C(=O)N[C@@H](Cc1ccccc1)C(N)=O)[C@@H](C)O` [FIKHFIHRFSATLQLLKQLLKLLKQF] as the compound, how does the MIC [2] read?
Answer: The MIC was 19.5 µM (≈ 62.5 µg/mL).

Question: What about the MIC [3] of the same compound?
Answer: The MIC was 4.98 µM (≈ 16 µg/mL).

Question: What about the MIC [4] of the same compound?
Answer: The MIC was 4.98 µM (≈ 16 µg/mL).

Question: And the MIC [5]?
Answer: Its MIC is 9.96 µM (≈ 32 µg/mL).

Question: What about the MIC [6] of the same compound?
Answer: Its MIC is 9.96 µM (≈ 32 µg/mL).

Question: What about the MIC [7] of the same compound?
Answer: The MIC was 2.49 µM (≈ 8 µg/mL).

Question: `CC(C)C[C@H](NC(=O)[C@H](CC(C)C)NC(=O)[C@H](CCCCN)NC(=O)[C@H](CCCCN)NC(=O)[C@H](CC(C)C)NC(=O)[C@H](C)NC(=O)[C@H](CCCCN)NC(=O)[C@H](Cc1ccccc1)NC(=O)[C@H](CC(C)C)NC(=O)[C@H](C)NC(=O)[C@H](CCCCN)NC(=O)[C@H](CC(C)C)NC(=O)[C@@H](N)Cc1ccccc1)C(=O)O` [FLKALFKALKKLL] was tested. Which MIC [8] did it give?
Answer: The MIC was 6.52 µM (≈ 10 µg/mL).

Question: And the MIC [1]?
Answer: The MIC was 1.96 µM (≈ 3 µg/mL).

Question: And the MIC [9]?
Answer: The MIC was 5.87 µM (≈ 9 µg/mL).

Question: And the MIC [10]?
Answer: The MIC was 7.83 µM (≈ 12 µg/mL).

Question: How did the MIC [11] turn out when `CC(C)C[C@H](NC(=O)[C@H](C)NC(=O)[C@H](CC(N)=O)NC(=O)[C@H](CC(C)C)NC(=O)[C@@H](N)Cc1ccccc1)C(=O)N[C@@H](CCCCN)C(=O)N[C@@H](CC(N)=O)C(=O)N[C@@H](Cc1ccccc1)C(=O)N[C@@H](C)C(=O)N[C@@H](CCCCN)C(=O)N[C@H](C(=O)N[C@@H](C)C(=O)NCC(=O)N[C@@H](CCCCN)C(=O)N[C@@H](CCCN=C(N)N)C(=O)N[C@@H](CC(C)C)C(=O)N[C@@H](CCCCN)C(=O)N[C@@H](CO)C(=O)N[C@@H](CC(C)C)C(=O)N[C@@H](CC(C)C)C(=O)N[C@@H](CC(N)=O)C(=O)O)[C@@H](C)O` [FLNALKNFAKTAGKRLKSLLN] was run?
Answer: The MIC was 6.4 µM (≈ 15 µg/mL).

Question: What about the MIC [12] of the same compound?
Answer: The MIC was 7.3 µM (≈ 17.1 µg/mL).

Question: What about the MIC [13] of the same compound?
Answer: The MIC was 4.7 µM (≈ 11 µg/mL).

Question: What about the MIC [14] of the same compound?
Answer: Its MIC is 5.3 µM (≈ 12.4 µg/mL).

Question: How did the MIC [15] turn out when `CC[C@H](C)[C@H](N)C(=O)N1CCC[C@H]1C(=O)N1CCC[C@H]1C(=O)N[C@@H](Cc1ccccc1)C(=O)N[C@H](C(=O)N[C@@H](CCCCN)C(=O)N[C@@H](CCCCN)C(=O)N[C@H](C(=O)N[C@@H](CC(C)C)C(=O)N[C@H](C(=O)N[C@H](C(=O)N[C@H](C(=O)N[C@@H](Cc1ccccc1)C(N)=O)C(C)C)[C@@H](C)O)[C@@H](C)O)C(C)C)[C@@H](C)CC` [IPPFIKKVLTTVF] was run?
Answer: Its MIC is 25 µM (≈ 37.5 µg/mL).

Question: What about the MIC [16] of the same compound?
Answer: Its MIC is 25 µM (≈ 37.5 µg/mL).

Question: And the MIC [17]?
Answer: The MIC was 4.38 µM (≈ 6.58 µg/mL).

Question: What about the MIC [18] of the same compound?
Answer: Its MIC is 25 µM (≈ 37.5 µg/mL).

Question: And the MIC [19]?
Answer: Its MIC is 25 µM (≈ 37.5 µg/mL).

Question: And the MIC [20]?
Answer: The MIC was 50 µM (≈ 75.1 µg/mL).

Question: And the MIC [21]?
Answer: The MIC was 25 µM (≈ 37.5 µg/mL).

Question: What about the MIC [22] of the same compound?
Answer: Its MIC is ≥ 50 µM.

Question: And the MIC [23]?
Answer: The MIC was > 50 µM.

Question: And the MIC [24]?
Answer: Its MIC is 12.5 µM (≈ 18.8 µg/mL).

Question: What about the MIC [25] of the same compound?
Answer: Its MIC is 12.5 µM (≈ 18.8 µg/mL).

Question: And the MIC [26]?
Answer: The MIC was 25 µM (≈ 37.5 µg/mL).

Question: What about the MIC [27] of the same compound?
Answer: Its MIC is ≥ 50 µM.

Question: What about the MIC [28] of the same compound?
Answer: Its MIC is 12.5 µM (≈ 18.8 µg/mL).

Question: And the MIC [29]?
Answer: The MIC was 25 µM (≈ 37.5 µg/mL).

Question: And the MIC [30]?
Answer: Its MIC is 25 µM (≈ 37.5 µg/mL).

Question: What about the MIC [31] of the same compound?
Answer: Its MIC is 25 µM (≈ 37.5 µg/mL).

Question: For `CC[C@H](C)[C@H](NC(=O)[C@H](Cc1ccccc1)NC(=O)[C@H](Cc1cnc[nH]1)NC(=O)[C@H](CCCCN)NC(=O)[C@@H](NC(=O)[C@H](Cc1ccccc1)NC(=O)[C@@H](NC(=O)[C@H](C)NC(=O)[C@H](CO)NC(=O)[C@H](Cc1ccccc1)NC(=O)[C@H](CCC(N)=O)NC(=O)[C@H](CCCCN)NC(=O)[C@H](CC(C)C)NC(=O)[C@H](CC(C)C)NC(=O)[C@H](CCCCN)NC(=O)[C@H](CC(C)C)NC(=O)[C@H](CC(C)C)NC(=O)[C@H](CCC(N)=O)NC(=O)[C@H](CCCCN)NC(=O)[C@H](CC(C)C)NC(=O)[C@H](CC(C)C)NC(=O)[C@H](CCC(N)=O)NC(=O)[C@@H](N)CC(C)C)[C@@H](C)O)[C@@H](C)CC)C(=O)N[C@@H](Cc1cnc[nH]1)C(=O)N[C@@H](CCCN=C(N)N)C(=O)N[C@@H](Cc1ccccc1)C(N)=O` [LQLLKQLLKLLKQFSATFIKHFIHRF], which MIC [2] is on record?
Answer: Its MIC is 9.96 µM (≈ 32 µg/mL).

Question: And the MIC [3]?
Answer: The MIC was 2.49 µM (≈ 8 µg/mL).

Question: What about the MIC [4] of the same compound?
Answer: Its MIC is 4.98 µM (≈ 16 µg/mL).

Question: And the MIC [5]?
Answer: The MIC was 9.96 µM (≈ 32 µg/mL).

Question: And the MIC [6]?
Answer: The MIC was 9.96 µM (≈ 32 µg/mL).

Question: What about the MIC [7] of the same compound?
Answer: The MIC was 4.98 µM (≈ 16 µg/mL).

Question: What does the source list for `CC[C@H](C)[C@H](NC(=O)[C@H](CCCN=C(N)N)NC(=O)[C@H](CCC(=O)O)NC(=O)[C@@H]1CCCN1C(=O)[C@@H]1CCCN1C(=O)[C@H](Cc1ccc(O)cc1)NC(=O)[C@H](CC(C)C)NC(=O)[C@H](Cc1ccccc1)NC(=O)[C@H](CCC(N)=O)NC(=O)[C@@H]1CCCN1C(=O)CNC(=O)[C@@H](NC(=O)[C@H](Cc1ccc(O)cc1)NC(=O)[C@H](CCC(N)=O)NC(=O)[C@H](CC(N)=O)NC(=O)[C@H](CCCCN)NC(=O)[C@H](CCCN=C(N)N)NC(=O)[C@H](CCC(=O)O)NC(=O)[C@H](CO)NC(=O)[C@H](Cc1ccc(O)cc1)NC(=O)[C@@H]1CCCN1C(=O)[C@H](CCCN=C(N)N)NC(=O)[C@H](CCCCN)NC(=O)[C@H](CC(=O)O)NC(=O)[C@H](CCCCN)NC(=O)[C@H](CCC(N)=O)NC(=O)[C@@H](N)CCCN=C(N)N)[C@@H](C)O)C(=O)N1CCC[C@H]1C(=O)N1CCC[C@H]1C(=O)O` [RQKDKRPYSERKNQYTGPQFLYPPERIPP]?
Answer: MIC [32]: 2.23 µM (≈ 8 µg/mL); MIC [19]: 3.34 µM (≈ 12 µg/mL); MIC [33]: 5.57 µM (≈ 20 µg/mL); MIC [34]: 3.34 µM (≈ 12 µg/mL); MIC [35]: 3.34 µM (≈ 12 µg/mL); MIC [36]: 3.34 µM (≈ 12 µg/mL); MIC [37]: 2.23 µM (≈ 8 µg/mL); MIC [38]: 4.46 µM (≈ 16 µg/mL); MIC [39]: 2.23 µM (≈ 8 µg/mL)

Reference: DBAASP
